Measured values published in patent US20230210834A1, “RNA METHYLTRANSFERASE INHIBITOR, SCREENING METHOD THEREFOR, ANTI-CANCER AGENT EFFICACY ASSESSMENT MARKER, AND KIT FOR EFFECTIVELY PREDICTING FTSJ1 INHIBITOR” (National University Corporation Okayama University, priority 2019, published 2023).

Experiments:
[1] = test system: YAP/TAZ; assay: Screening: YAP/TAZ activity reporter (8xGTIIC plasmid) assay in NUGC3 cells (luminescence % of DMSO); assay type: cell-based, human; settings: NUGC3 cells, luminescence relative to DMSO, concentration not given
Description: (§1) Human gastric cancer cell line NUGC3 was cultured in a DMEM medium (high glucose with L-glutamine and phenol red, produced by FUJIFILM Wako Pure Chemical Corporation) containing 10% fetal bovine serum (produced by Thermo Fisher Scientific Inc.) and penicillin-streptomycin (produced by FUJIFILM Wako Pure Chemical Corporation) (this medium is simply referred to below as “DMEM+10% FBS+1×P/S”). Then, the NUGC3 cells were seeded in a 60-mm culture dish (produced by BioLite) so that the cells were 80% confluent after 24 hours. Subsequently, 5 μg of a reporter plasmid and 15 μL of a lipofection reagent (transIT-LT1, produced by Mirus Bio LLC) were mixed in 500 μL of Opti-MEM medium (produced by Thermo Fisher Scientific, Inc.) to form a complex, which was added to the medium in which the NUGC3 cells were cultured in the 60-mm culture dish. For use as the reporter plasmid, 5 μg of a polyglutamine luciferase reporter was introduced (in the polyglutamine luciferase reporter, a Renilla luciferase expressed in the IRES was located as an internal standard downstream of the sequence of a firefly luciferase sequence to which polyglutamine was added). Alternatively, a YAP/TAZ activity reporter was used by simultaneously introducing 3 μg of 8×GTIIC plasmid and 2 μg of a Renilla luciferase reporter as an internal standard. After another 24 hours, the cells were exfoliated with a 0.05 w/v % trypsin-0.53 mmol/l EDTA-4Na solution (produced by FUJIFILM Wako Pure Chemical Corporation), and then seeded in a 96-well plate (produced by BioLite) so that the cells were 80% confluent after 24 hours. Twenty-four hours after seeding in the 96-well plate, the medium in each well was replaced with 100 μL of a medium (DMEM+10% FBS+an antibiotic) containing 10 μM or 5 μM of a compound for evaluation. After another 24 hours, the medium containing the compound was removed, and the 96-well plate was transferred on ice. Each well was washed with 100 μL of phosphate buffer (PBS, produced by FUJIFILM Wako Pure Chemical Corporation). Thereafter, 20 μL of Passive Lysis Buffer (1×) contained in a Dual-Luciferase Reporter Assay System (produced by Promega Corporation) was added. The plate was then gently shaken for 15 minutes at room temperature to lyse the cells. After confirming that the cells were lysed, 10 μL of the lysate was transferred from each well to each corresponding well of a white 96-well plate (produced by Greiner Bio-one). To each well of the white 96-well plate was added 100 μL of a mixture of a Luciferase Assay Buffer II and Luciferase Assay Substrate contained in the Dual-Luciferase Reporter Assay System (produced by Promega Corporation), whereby the luminescence of the firefly luciferase was induced, and the luminescence intensity was detected with a microluminometer (produced by Berthold Japan K.K.). Subsequently, 100 μL of a mixture of Stop & Glo Buffer and Stop & Glo Substrate contained in the Dual-Luciferase Reporter Assay System (produced by Promega Corporation) was added, whereby the luminescence of firefly luciferase was quenched while the luminescence of Renilla luciferase was induced, and the luminescence intensity was detected with a microluminometer (produced by Berthold Japan K.K.) in a manner similar to the above. The ratio of the luminescence intensity of the firefly luciferase and the luminescence intensity of the Renilla luciferase was calculated, and the luminescence intensity (%) of the wells containing each compound was calculated with the luminescence intensity of the well containing DMSO (dimethyl sulfoxide, used as a solvent for the compound liquids) taken as 100%. […] Unless otherwise specified, the measured values in the table represent the results obtained by evaluation with the addition of 10 μM of each compound for evaluation.

[2] = test system: polyglutamine luciferase reporter; assay: Screening: polyglutamine luciferase reporter assay in NUGC3 cells (luminescence % of DMSO); assay type: cell-based, human; settings: NUGC3 cells, luminescence relative to DMSO, concentration not given
Description: as §1

[3] = YAP/TAZ activity reporter (8×GTIIC)
[4] = polyglutamine luciferase reporter

| Structure (SMILES) | 8×GTIIC [1, 3] [%] | Polyglutamine [2, 4] [%] | 8×GTIIC [1] [%] | Polyglutamine [2] [%] |
| --- | --- | --- | --- | --- |
| CCCc1ccc(S(=O)(=O)CC2CCC(C3CC3)CC2)cc1OCC (centres unmarked) [SA029] | 65.65 | 58.64 |  |  |
| CCc1ccc(S(=O)(=O)CC2CCC(S(C)(=O)=O)CC2)cc1CC (centres unmarked) [SA063] | 93.35 | 78.75 |  |  |
| Cc1cccc(S(=O)(=O)CC2CCC(C3CC3)CC2)c1 (centres unmarked) [SA041] | 87.17 | 88.82 |  |  |
| CCc1cc(C)c(S(=O)(=O)CC2CC(C)(C)CC(C)(C)C2)cc1C(C)C [SA006] | 40.21 | 37.54 |  |  |
| CC(C)(C)c1ccc(S(=O)(=O)CCc2ccccc2)cc1 [PVZF2023] | 66.96 | 58.32 |  |  |
| Cc1c(C)c(C)c(S(=O)(=O)CC2CCC(C3CC3)CC2)c(C)c1C (centres unmarked) [SA037] | 35.53 | 42.93 |  |  |
| CCCCCCS(=O)(=O)c1ccc(C(C)(C)CC)cc1 [PVZF2038] | 56.84 | 58.2 |  |  |
| O=S(=O)(CC1CCC(S(=O)(=O)c2ccccc2)CC1)c1ccccc1 (centres unmarked) [SA049] | 43.7 | 39.58 |  |  |
| Cc1cc(C)c(C)c(S(=O)(=O)CC2CCC(S(C)(=O)=O)CC2)c1C (centres unmarked) [SA093] | 39.06 | 38.43 |  |  |
| CC(C)(C)c1ccc(S(=O)(=O)CCC2CCCCC2)cc1 [PVZF2024] | 55.45 | 63.4 |  |  |
| Cc1cc(C(C)(C)C)cc(C)c1S(=O)(=O)CC1CCC(C2CC2)CC1 (centres unmarked) [SA053] | 55.02 | 35.39 |  |  |
| CC1CCC(S(=O)(=O)C2CCC(CS(=O)(=O)c3ccccc3)CC2)CC1 (centres unmarked) [SA072] | 68.16 | 73.98 |  |  |
| CCC(C)(C)c1ccc(S(=O)(=O)CCc2ccccc2)cc1 [PVZF2041] | 79.61 | 78.87 |  |  |
| Cc1ccc(C)c(S(=O)(=O)CC2CCC(C3CC3)CC2)c1 (centres unmarked) [SA052] | 54.65 | 47.69 |  |  |
| CCOc1cc(S(=O)(=O)C2CCC(NS(=O)(=O)c3ccccc3)CC2)ccc1COC (centres unmarked) [SA018] | 74.98 | 78.85 |  |  |
| CCS(=O)(=O)C1CCC(CS(=O)(=O)c2cc(C(C)C)cc(C)c2C)CC1 (centres unmarked) [SA077] | 66.59 | 65.09 |  |  |
| Cc1cc(C)c(C)c(S(=O)(=O)CC2CCC(S(C)(=O)=O)CC2)c1C (centres unmarked) [SA086] | 40.75 | 33.07 |  |  |
| O=S(=O)(CCCC1CCCCC1)c1ccc(C2CCCCC2)cc1 [PVZF2071] | 70.27 | 63.89 |  |  |
| CCc1ccc(C2=NC(S(=O)(=O)c3ccc(C)cc3)C(c3cccc(CC)c3CC)C2)cc1CC (centres unmarked) [PVZF0081] |  |  | 56.18 | 57.42 |
| CCCC(=O)C1CCC(CS(=O)(=O)c2ccc(C)cc2C)CC1 (centres unmarked) [SA025] | 46.27 | 49.45 |  |  |
| CCc1ccccc1C1CC(c2ccc(C)cc2)=NC1S(=O)(=O)c1ccccc1C (centres unmarked) [PVZF0065] |  |  | 67.6 | 48.96 |
| CC1(C)CC(CS(=O)(=O)c2ccc3ccccc3c2)CC(C)(C)C1 [PVZF2018] | 73.29 | 61.19 |  |  |
| Cc1ccc(C2=NC(S(=O)(=O)c3ccccc3C)C(c3ccc(C)cc3)C2)cc1 (centres unmarked) [PVZF0064] |  |  | 93.3 | 58.28 |
| CCc1ccc(C2=NC(S(=O)(=O)c3ccccc3)C(c3cccc(CC)c3CC)C2)cc1CC (centres unmarked) [PVZF0052] |  |  | 54.38 | 71.62 |
| Cc1ccc(C)c(S(=O)(=O)CC2CCC(S(C)(=O)=O)CC2)c1 (centres unmarked) [SA064] | 64.48 | 54.39 |  |  |
| Cc1ccc(C2=NC(S(C)(=O)=O)C(c3ccc(C)cc3)C2)cc1 (centres unmarked) [PVZF0087] |  |  | 187.1 | 81.35 |

| Structure (SMILES) | 8×GTIIC [1, 3] [%] | Polyglutamine [2, 4] [%] | 8×GTIIC [1] [%] | Polyglutamine [2] [%] |
| --- | --- | --- | --- | --- |
| CCCCCCS(=O)(=O)c1c(C(C)C)cc(C(C)C)cc1C(C)C [PVZF2003] | 75.26 | 41.74 |  |  |
| COc1ccc(S(=O)(=O)C2CCC(CS(=O)(=O)c3c(C)c(C)c(C)c(C)c3C)CC2)cc1 (centres unmarked) [SA020] | 36.19 | 27.71 |  |  |
| CCC(C)(C)c1ccc(S(=O)(=O)CCC2CCCCC2)cc1 [PVZF2042] | 35.98 | 34.02 |  |  |
| CCCCCCS(=O)(=O)c1ccccc1 [PVZF2047] | 63.56 | 48.95 |  |  |
| CCc1cccc(C2CC(c3cccc(C)c3)=NC2S(=O)(=O)c2ccccc2C)c1CC (centres unmarked) [PVZF0058] |  |  | 66.66 | 54.21 |
| CC1(C)CC(CS(=O)(=O)c2ccc(C(C)(C)C)cc2)CC(C)(C)S1 [PVZF2045] | 66.26 | 65.16 |  |  |
| O=S(=O)(CC1CCCC1)c1ccc(-c2ccccc2)cc1 [PVZF2028] | 40.24 | 42.32 |  |  |
| Cc1cccc(S(=O)(=O)CC2CCC(C3CC3)CC2)c1C (centres unmarked) [SA030] | 73.56 | 86.26 |  |  |
| CC(C)(C)c1ccc(S(=O)(=O)CC2CCCC2)cc1 [PVZF2019] | 36.82 | 31.45 |  |  |
| CCc1ccc(CC)c(S(=O)(=O)CC2CCC(S(C)(=O)=O)CC2)c1 (centres unmarked) [SA095] | 67.3 | 44.97 |  |  |
| CC(C)(C)c1ccc(S(=O)(=O)CCCC2CCCCC2)cc1 [PVZF2026] | 34.4 | 31.89 |  |  |
| O=S(=O)(CC1CCC(C2CC2)CC1)c1ccc(C(F)(F)F)cc1 (centres unmarked) [SA033] | 96.16 | 96.01 |  |  |
| O=S(=O)(CC1CCCC1)c1ccc(C2CCCCC2)cc1 [PVZF2064] | 75.47 | 64 |  |  |
| Cc1ccc(S(=O)(=O)CC2CCC(S(C)(=O)=O)CC2)c(C(C)(C)C)c1 (centres unmarked) [SA085] | 83.09 | 86 |  |  |
| Cc1cc(C(C)C)cc(S(=O)(=O)CC2CCC(S(C)(=O)=O)CC2)c1C (centres unmarked) [SA078] | 95.87 | 87.12 |  |  |
| Cc1cccc(S(=O)(=O)CC2CCC(C3CC3)CC2)c1 (centres unmarked) [SA054] | 83.34 | 109.1 |  |  |
| CCCc1cc(S(=O)(=O)CC2CC(C)(C)CC(C)(C)C2)ccc1C [SA011] | 67.54 | 60.35 |  |  |
| Cc1ccc(C2=NC(S(=O)(=O)c3ccccc3)C(c3ccc(C)cc3)C2)cc1 (centres unmarked) [PVZF0096] |  |  | 103.6 | 73.68 |
| Cc1ccc(S(=O)(=O)CC2CCC(C3CC3)CC2)c(C)c1 (centres unmarked) [SA035] | 116.6 | 98.96 |  |  |
| Cc1ccc(C2=NC(S(=O)(=O)c3ccccc3)C(c3ccc(C)cc3)C2)cc1 (centres unmarked) [PVZF0073] |  |  | 86.43 | 60.62 |
| Cc1cc(C)c(S(=O)(=O)CC2CC(C)(C)CC(C)(C)C2)cc1C [SA007] | 56.96 | 55.29 |  |  |
| O=S(=O)(CC1CCCCC1)c1ccc2ccccc2c1 [PVZF2012] | 34.08 | 33.76 |  |  |
| Cc1ccc(C2=NC(S(=O)(=O)c3ccc(C)cc3)C(c3ccccc3)C2)cc1 (centres unmarked) [PVZF0072] |  |  | 76.88 | 60.73 |
| Cc1ccc(S(=O)(=O)CC2CCC(C3CC3)CC2)c(C)c1 (centres unmarked) [SA050] | 92.26 | 60.42 |  |  |
| CCc1cccc(C2CC(c3ccc(C)cc3)=NC2S(=O)(=O)c2ccccc2)c1CC (centres unmarked) [PVZF0056] |  |  | 53.76 | 48.33 |
| CC(C)(C)c1cc(C(C)(C)C)cc(S(=O)(=O)CC2CCC(S(C)(=O)=O)CC2)c1 (centres unmarked) [SA070] | 109.7 | 59.04 |  |  |
